Assay results: patent US20060045953A1 (priority 2004, published 2006)

These compounds were tested against T1, hT1R1/hT1R3 umami receptor (Homo sapiens, UniProt Q7RTX0+Q7RTX1) (assay: In vitro hT1R1/hT1R3 umami taste receptor activation assay (FLIPR, dose response)). Conditions: Table A, Umami Amides; read-out: Umami EC50.
T1 construct: expressed in transfected cells; host or cells: HEK293 derivative stably expressing Gα15, clone I-17, expression induced with mifepristone
T1 sequence (Q7RTX1 21-841): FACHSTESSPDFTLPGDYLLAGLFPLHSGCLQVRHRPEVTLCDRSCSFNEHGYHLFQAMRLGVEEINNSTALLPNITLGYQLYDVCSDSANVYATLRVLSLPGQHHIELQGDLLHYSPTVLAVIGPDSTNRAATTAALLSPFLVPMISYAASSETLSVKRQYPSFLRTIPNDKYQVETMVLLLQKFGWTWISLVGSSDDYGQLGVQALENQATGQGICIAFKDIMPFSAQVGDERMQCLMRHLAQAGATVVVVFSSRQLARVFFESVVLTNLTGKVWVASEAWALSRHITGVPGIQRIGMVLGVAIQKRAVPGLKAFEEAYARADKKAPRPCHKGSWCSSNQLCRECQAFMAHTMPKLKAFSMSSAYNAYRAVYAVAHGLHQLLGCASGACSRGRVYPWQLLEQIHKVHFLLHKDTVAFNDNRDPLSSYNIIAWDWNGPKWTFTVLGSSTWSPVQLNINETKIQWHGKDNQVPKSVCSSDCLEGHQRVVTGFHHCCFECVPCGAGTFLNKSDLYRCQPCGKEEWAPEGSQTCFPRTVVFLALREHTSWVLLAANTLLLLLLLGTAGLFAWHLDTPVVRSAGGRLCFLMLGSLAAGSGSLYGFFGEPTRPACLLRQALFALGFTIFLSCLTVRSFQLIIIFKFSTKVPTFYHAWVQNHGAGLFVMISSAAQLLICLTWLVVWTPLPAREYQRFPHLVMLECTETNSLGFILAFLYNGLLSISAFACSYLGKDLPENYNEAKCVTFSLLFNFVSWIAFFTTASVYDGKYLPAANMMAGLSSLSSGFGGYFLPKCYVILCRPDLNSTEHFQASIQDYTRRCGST
T1 sequence (Q7RTX0 21-852): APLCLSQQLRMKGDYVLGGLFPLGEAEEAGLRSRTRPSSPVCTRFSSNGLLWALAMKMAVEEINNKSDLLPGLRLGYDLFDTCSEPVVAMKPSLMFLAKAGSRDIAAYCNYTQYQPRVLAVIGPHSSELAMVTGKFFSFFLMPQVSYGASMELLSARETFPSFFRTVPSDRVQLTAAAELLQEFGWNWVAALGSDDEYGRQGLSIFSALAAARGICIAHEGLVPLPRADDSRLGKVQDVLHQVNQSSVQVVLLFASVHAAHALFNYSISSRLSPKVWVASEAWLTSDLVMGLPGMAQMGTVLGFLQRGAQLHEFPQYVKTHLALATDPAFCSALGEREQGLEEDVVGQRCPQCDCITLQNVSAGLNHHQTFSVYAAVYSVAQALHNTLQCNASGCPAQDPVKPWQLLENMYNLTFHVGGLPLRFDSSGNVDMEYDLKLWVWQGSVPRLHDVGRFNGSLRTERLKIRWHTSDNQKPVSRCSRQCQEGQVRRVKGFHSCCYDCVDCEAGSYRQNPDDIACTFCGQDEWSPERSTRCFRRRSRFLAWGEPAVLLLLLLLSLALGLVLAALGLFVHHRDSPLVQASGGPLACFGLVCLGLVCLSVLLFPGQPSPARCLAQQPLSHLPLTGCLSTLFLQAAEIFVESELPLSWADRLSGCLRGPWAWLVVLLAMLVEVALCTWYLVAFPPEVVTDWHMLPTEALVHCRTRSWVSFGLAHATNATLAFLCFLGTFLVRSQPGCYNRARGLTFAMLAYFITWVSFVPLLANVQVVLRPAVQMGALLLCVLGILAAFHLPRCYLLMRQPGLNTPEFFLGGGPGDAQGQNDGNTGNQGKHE
Type: cell-based
In the case of COc1ccc2c(c1)CCCC2NC(=O)c1cccc(OC)c1N (stereo not drawn) [Example A107, 2-amino-3-methoxy-N-(6-methoxy-1,2,3,4-tetrahydronaphthalen-1-yl)benzamide], the EC50 is reported as 70 nM. Work on COc1cccc(C(=O)N[C@@H]2CCCc3ccccc32)c1N [Example A108, (R)-2-amino-3-methoxy-N-(1,2,3,4-tetrahydronaplithalen-1-yl)benzamide] yielded an EC50 of 90 nM. COc1ccc(C(=O)N[C@H]2CCCc3ccccc32)cc1C [Example A109, (S)-4-methoxy-3-methyl-N-(1,2,3,4-tetrahydronaphthalen-1-yl)benzamide] was tested, and the EC50 was 80 nM. Compound COc1ccc2c(c1)CCC2NC(=O)c1ccc(O)c(C)c1 (stereo not drawn) [Example A110, 4-hydroxy-N-(5-methoxy-2,3-dihydro-1H-inden-1-yl)-3-methylbenzamide] has an EC50 of 300 nM. Work on Cc1cc(C(=O)N[C@H]2CCc3ccccc32)ccc1O [Example A111, (S)-N-(2,3-dihydro-1H-inden-1-yl)-4-hydroxy-3-methylbenzamide] yielded an EC50 of 660 nM. For Cc1ccc(C(=O)N[C@H]2CCc3ccccc32)cc1C [Example A112, (S)-N-(2,3-dihydro-1H-inden-1-yl) 3,4-dimethylbenzamide], the EC50 was 790 nM. Work on CCOc1ccc(C(=O)N[C@H]2CCc3ccccc32)cc1C [Example A113, (S)-N-(2,3-dihydro-1H-inden-1-yl)-4-ethoxy-3-methylbenzamide] yielded an EC50 of 850 nM. Work on COc1cc(C(=O)N[C@@H]2CCCc3ccccc32)nc(OC)n1 [Example A114, (R)-2,6-dimethoxy-N-(1,2,3,4-tetrahydronaphthalen-1-yl)pyrimidine 4-carboxamide] yielded an EC50 of 2350 nM. In the case of O=C(N[C@H]1CCOc2ccccc21)c1cccc(Cl)c1O [Example A115, (s)-3-chloro-N-(chroman-4-yl)-2-hydroxybenzamide], the EC50 is reported as 5000 nM. Compound CCCC(CCC)NC(=O)c1cccc(CC)c1 [Example A116, 3-ethyl-N-(heptan-4-yl)benzamide] has an EC50 of 10 nM. For CCCC(CCC)NC(=O)c1cc(COC)c(CC)o1 [Example A117, 5-ethyl-N-(heptan-4-yl)-4-(methoxymethyl)furan-2-carboxamide], the EC50 was 30 nM. CCCC(CCC)NC(=O)c1cccc(SC)c1 [Example A118, N-(heptan-4-yl)-3-(methylthio)benzamide] was tested, and the EC50 was 30 nM. Compound CCCC(CCC)NC(=O)c1ccc2c(c1)NCCC2 [Example A119, N-(heptan-4-yl)-1,2,3,4-tetrahydroguinoline-7-carboxamide] has an EC50 of 50 nM. Work on CCCC(CCC)NC(=O)c1ccc(OC)c([N+](=O)[O-])c1 [Example A120, N-(heptan-4-yl)-4-methoxy-3-nitrobenzamide] yielded an EC50 of 80 nM. CCCC(CCC)NC(=O)c1cc2c(s1)CCC2 [Example A121, N-(heptan-4-yl)-5,6-dihydro-4H-cyclopenta[b]thiophene-2-carboxamide] was tested, and the EC50 was 150 nM. Work on CCCC(CCC)NC(=O)c1cc(OC)nc(OC)n1 [Example A122, N-(heptan-4-yl)-2,6-dimethoxypyrimidine-4-carboxamide] yielded an EC50 of 220 nM. In the case of CCCC(CCC)NC(=O)c1coc2ccccc12 [Example A123, N-(heptan-4-yl)benzofuran-3-carboxamide], the EC50 is reported as 510 nM. Work on Cc1ccc(C(=O)NC2CCCCC2C)cc1C (stereo not drawn) [Example A124, 3,4-dimethyl-N-(2-methylcyclohexyl)benzamide] yielded an EC50 of 10 nM. COc1cccc(C(=O)NC2CCCCC2C)c1N (stereo not drawn) [Example A125, 2-amino-3-methoxy-N-(2-methylcyclohexyl)benzamide] gave an EC50 of 20 nM. With COc1ccc2c(c1)CCC2NC(=O)c1cccc(OC)c1N (stereo not drawn) [Example A126, 2-amino-3-methoxy-N-(5-methoxy-2,3-dihydro-1H-inden-1-yl)benzamide] the EC50 was 40 nM. Compound CCCC(CCC)NC(=O)c1cccc(C)c1N [Example A127, 2-amino-N-(heptan-4-yl)-3-methylbenzamide] has an EC50 of 140 nM. Work on CCCC(CCC)NC(=O)c1ccc(-c2cnco2)cc1 [Example A128, N-(heptan-4-yl)-4-(oxazol-5-yl)benzamide] yielded an EC50 of 400 nM. In the case of COc1ccc(C(=O)NC2CCc3cccc(C)c32)cc1C (stereo not drawn) [Example A129, 4-methoxy-3-methyl-N-(7-methyl-2,3-dihydro-1H-inden-1-yl)benzamide], the EC50 is reported as 1030 nM. For CCCC(CCC)NC(=O)c1cc2cccc(OC)c2o1 [Example A130, N-(heptan-4-yl)-7-methoxybenzofuran-2-carboxamide], the EC50 was 160 nM.

Same assay, conditions: Table B, Umami Oxalamides; read-out: Umami EC50
In the case of COc1ccc(CNC(=O)C(=O)NCCc2ccco2)c(OC)c1 [Example B1, N1-(2,4-dimethoxybenzyi)-N2-(2-(furan-2-yl)ethyl)oxalamide], the EC50 is reported as 180 nM. Work on CCOc1ccc(CNC(=O)C(=O)NCCc2ccc(C)cn2)c(OC)c1 [Example B2, N1-(4-ethoxy-2-methoxybenzyl)-N2-(2-(5-methylpyndm-2-yl)ethyl)oxalamide] yielded an EC50 of 190 nM. Cc1c(CNC(=O)C(=O)NCCc2ccccn2)sc2ccccc12 [Example B3] gave an EC50 of 810 nM. In the case of CC(C)Oc1ccccc1CNC(=O)C(=O)NCCc1ccccn1 [Example B4, N1-(2-isopropoxybenzyl)-N2-(2-(pyridin-2-yl)ethyl)oxalamide], the EC50 is reported as 1220 nM.

Same assay, conditions: Table C, Umami Ureas; read-out: Umami EC50
Compound CCCC(CCC)NC(=O)Nc1ccccc1Cl [Example C1, 1-(2-chlorophenyl)-3-(heptan-4-yl)urea] has an EC50 of 370 nM. CCC(NC(=O)Nc1ccc(Cl)cc1Cl)c1ccccc1 (stereo not drawn) [Example C2, 1-(2,4-dichlorophenyl)-3-(1-phenylpropyl)urea] showed an EC50 of 490 nM. Work on CC1CCCCC1NC(=O)Nc1ccccc1Cl (stereo not drawn) [Example C3, 1-(2-chlorophenyl)-3-(2-methylcyclohexyl)urea] yielded an EC50 of 520 nM. Work on CCCC(CCC)NC(=O)Nc1ccccc1F [Example C4, 1-(2-fluorophenyl)-3-(heptan-4-yl)urea] yielded an EC50 of 790 nM. CC(NC(=O)Nc1ccccc1Cl)C1CCCCC1 (stereo not drawn) [Example C5, 1-(2-chlorophenyl)-3-(1-cyclohexylethyl)urea] was tested, and the EC50 was 840 nM. With CC(C)c1ccc(NC(=O)NCCc2ccccn2)cc1 [Example C6, 1-(4-isopropylphenyl)-3-(2-(pyridin-2-yl)ethyl)urea] the EC50 was 980 nM. Compound O=C(Nc1ccccc1Cl)NC1CCCc2ccccc21 (stereo not drawn) [Example C7, 1-(2-chlorophenyl)-3-(1,2,3,4-tetrahydronaphthalen-1-yl)urea] has an EC50 of 990 nM. With COc1ccc(NC(=O)NC2CCCCC2C)c(OC)c1 (stereo not drawn) [Example C8, 1-(2,4-dimethoxyphenyl)-3-(2-methylcyclohexyl)urea] the EC50 was 1410 nM. CCCC(CCC)NC(=O)Nc1ccccc1CC [Example C9, 1-(2-ethylphenyl)-3-(heptan-4-yl)urea] gave an EC50 of 1420 nM. With CCOc1ccc(NC(=O)NC2CCCCC2C)cc1 (stereo not drawn) [Example C10, 1-(4-ethoxyphenyl)-3-(2-methylcyclohexyl)urea] the EC50 was 1510 nM. Compound O=C(Nc1ccccc1F)NC1CCCc2ccccc21 (stereo not drawn) [Example C11, 1-(2-fluorophenyl)-3-(1,2,3,4-tetrahydronaphthalen-1-yl)urea] has an EC50 of 1650 nM. Compound COc1ccccc1NC(=O)NC1CCCCC1C (stereo not drawn) [Example C12, 1-(2-methoxyphenyl)-3-(2-methylcyclohexyl)urea] has an EC50 of 1670 nM. Compound CCC(CC)NC(=O)Nc1ccc(OC)cc1OC [Example C13, 1-(2,4-dimethoxyphenyl)-3-(pentan-3-yl)urea] has an EC50 of 1720 nM. With CSc1ccccc1NC(=O)NC(C(C)C)C(C)C [Example C14, 1-(2,4-dimethylpentan-3-yl)-3-(2-(methylthio)phenyl)urea] the EC50 was 140 nM.
